# Test results: US20250025445A1, “METHOD OF CARDIOPROTECTION” (Race Oncology LTD., priority 2021, published 2025)
# Like-named read-outs stand apart in the source and are kept apart here.
# What was measured:
# [1] = test system: Primary Human Cardiac Myocytes (HCMs); assay: Primary human cardiomyocyte cell viability (CellTiter-Glo); format: cell-based; settings: up to 72 hours; for mitigation of toxicity of carfilzomib towards primary HCMs: FTO inhibitor 0-10 μM with 1 μM carfilzomib; for mitigation of toxicity of doxorubicin towards primary HCMs: FTO inhibitor 0-10 μM with 1 μM doxorubicin
# Experimental: Primary Human Cardiac Myocytes (HCMs) were purchased from PromoCell® (Heidelberg, Germany) and cultured according to manufacturer's recommendations using PromoCell® Myocyte growth media (5% [v/v] foetal calf serum, 0.5 ng/ml recombinant human epidermal growth factor, 2 ng/ml recombinant human basic fibroblast growth factor, 5 μg/ml recombinant human insulin) supplemented with 1% [v/v] Penicillin-Streptomycin [Sigma-Aldrich]). Briefly, 1×10^6 HCMs were seeded and grown in Corning® T75 flasks (Sigma-Aldrich, New South Wales, Australia) in an incubator at 37° C. under 5% CO2 conditions. At 80-90% confluency, HCMs were gently detached using the DetachKit (PromoCell®), collected into Corning® 50 mL centrifuge tubes (Sigma-Aldrich), and centrifuged at 300×g for 10 mins at room temperature. The resulting supernatant were discarded and HCM pellet was resuspended with 5-10 mL of pre-warmed Myocyte Growth Medium. Total viable cells were enumerated with Invitrogen™ Countess Cell Counter (Thermo Fisher Scientific, New South Wales, Australia) and 1×10^5 live HCMs were seeded in triplicate into Corning® 96-well white polystyrene microplate (Sigma).
# (§1) Dox, Dauno and Epi, were dissolved in sterile water to make a stock concentration of 20 mM, respectively, while Tz was dissolved in sterile PBS to a stock concentration of 100 μM. […] The concentrations were as follows 0 nM, 15.62 nM, 62.5 nM, 250 nM, 500 nM, 1 μM, 5 μM, and 10 μM. […] Vehicle controls were incubated with media supplemented with either sterile water or DMSO. […] This was repeated at 48 hours and 72 hours. […] Both FB23/2 and brequinar (MedChemExpress) were dissolved in dimethyl sulfoxide (DMSO; Sigma-Aldrich) to make a stock concentration of 40 mM and 20 mM respectively.
# [2] = test system: H929 multiple myeloma cells; assay: H929 multiple myeloma cell viability (CellTiter-Glo); format: cell-based, human; settings: FTO inhibitor up to 10 μM with 1 μM doxorubicin; up to 72 hours
# Experimental: Human multiple myeloma NCI-H929 cells were cultured using RPMI-1640 growth media (Sigma-Aldrich), supplemented with 2 mM L-glutamine (Thermo Fisher Scientific), 10% (v/v) foetal calf serum (Sigma-Aldrich) and 0.05 mM 2-mercaptoethanol (Sigma-Aldrich). Briefly, 0.5×10^6 H929 were seeded and grown in Corning® T75 flasks (Sigma-Aldrich) in an incubator at 37° C. under 5% CO2 conditions. At 80-90% confluency, the cell suspension was then collected into Corning® 50 mL centrifuge tubes (Sigma-Aldrich) and centrifuged at 300×g for 10 mins at room temperature. The resulting supernatant were discarded and H929 pellet was resuspended with 5-10 mL of pre-warmed H929 growth media. Total viable cells were enumerated with Invitrogen™ Countess Cell Counter (Thermo Fisher Scientific, New South Wales, Australia) and 1×10^4 live H929 were seeded in triplicate into Corning® 96-well white polystyrene microplate (Sigma). […] The concentrations were as follows 0 nM, 15.62 nM, 62.5 nM, 250 nM, 500 nM, 1 μM, 5 μM, and 10 μM. […] Vehicle controls were incubated with media supplemented with either sterile water or DMSO. […] This was repeated at 48 hours and 72 hours. […] Both FB23/2 and brequinar (MedChemExpress) were dissolved in dimethyl sulfoxide (DMSO; […]
# [3] = test system: MCF7 breast cancer cells; assay: MCF7 breast cancer cell viability (CellTiter-Glo); format: cell-based, human; settings: FTO inhibitor up to 10 μM with 1 μM doxorubicin; up to 72 hours; FIG. 13
# Experimental: Human breast adenocarcinoma (MCF7) cells were purchased from In Vitro Technologies (Victoria, Australia) and cultured according to manufacturer's recommendations using MCF7 growth media, Low glucose Dulbecco's Modified Eagle's medium (DMEM; Sigma-Aldrich, Australia) supplemented with 10% (v/v) foetal calf serum (Sigma-Aldrich) and 1% (v/v) Penicillin-Streptomycin (Sigma-Aldrich). Briefly, 1×10^6 MCF7 were seeded and grown in Corning® T75 flasks (Sigma-Aldrich) in an incubator at 37° C. under 5% CO2 conditions. At 80-90% confluency, MCF7 were washed with Dulbecco's Phosphate Buffered Saline (Sigma-Aldrich) for 30s at room temperature and followed by incubation with Trypsin-EDTA (Sigma-Aldrich) for 5 mins at 37° C. under 5% CO2 conditions. Trypsin solution was then neutralised with 1:1 volume of MCF7 growth media. The cell suspensions were then collected into Corning® 50 mL centrifuge tubes (Sigma-Aldrich) and centrifuged at 300×g for 10 mins at room temperature. The resulting supernatants were discarded and MCF7 pellets were resuspended with 5-10 mL of pre-warmed MCF7 growth media. Total viable cells were enumerated with Invitrogen™ Countess Cell Counter (Thermo Fisher Scientific, New South Wales, Australia) and 9×10^4 live MCF7 were seeded in triplicate into Corning® 96-well white polystyrene microplate (Sigma).
# as §1
# [4] = cited from earlier work
# [5] = Doxorubicin cardiotoxicity in mice: blood tests; settings: doxorubicin 5 mg/kg alone
# Excerpt: (§2) In particular, well established cardiotoxicity markers, including left ventricular fractional shortening, heart E/A ratio, left ventricular diastolic function, left ventricular dilatation, cardiac output, plasma triglyceride levels, plasma creatine kinase-MB (CK-MB), plasma LDH (lactate dehydrogenase) and plasma brain natriuretic peptide (BNP) were monitored over a period of up to 42 days following the start of treatments delivered weekly, four times (and therefore final treatment on day 21).
# (§3) Treatments were delivered to mice intravenously on days 0, 7, 14 and 21. Mice underwent echocardiography measurements at days 0, 21 and 42 to determine LVEF, FS, EDV, ESV, CO, E wave, A wave, E′, E/A, and E/E′, and blood samples were taken at days 0, 21 and 42 to assay for cardiac troponin I levels, BNP levels, CK, LDH levels and triglycerides.
# [6] = doxorubicin 5 mg/kg alone
# Excerpt: as §2, §3
# [7] = cited from earlier work; remark: listed apart in the source
# [8] = i.v. weekly x4, day 21, worsening by day 42
# [9] = 42 days after start of treatment
smiles,measurement,setting,value
Cc1noc(C)c1-c1cc(Cl)c(Nc2ccccc2C(=O)NO)c(Cl)c1 [FB23/2],mitigation of toxicity of carfilzomib towards primary HCMs,[1],did not mitigate the toxicity
same,mitigation of toxicity of doxorubicin towards primary HCMs,[1],did not mitigate the toxicity
same,increased loss of viability of H929 cells cultured with doxorubicin,[2],"neither brequinar nor FB23/2, at concentrations of up to 10 μM, resulted in any increased loss of viability"
same,increased loss of viability of MCF7 cells cultured with doxorubicin,[3],"neither brequinar nor FB23/2, at concentrations of up to 10 μM, resulted in any increased loss of viability"
Cc1c(-c2ccc(-c3ccccc3F)cc2)nc2ccc(F)cc2c1C(=O)O [brequinar],mitigation of toxicity of carfilzomib towards primary HCMs,[1],did not mitigate the toxicity
same,mitigation of toxicity of doxorubicin towards primary HCMs,[1],did not mitigate the toxicity
same,increased loss of viability of H929 cells cultured with doxorubicin,[2],"neither brequinar nor FB23/2, at concentrations of up to 10 μM, resulted in any increased loss of viability"
same,increased loss of viability of MCF7 cells cultured with doxorubicin,[3],"neither brequinar nor FB23/2, at concentrations of up to 10 μM, resulted in any increased loss of viability"
CC(C)C[C@H](NC(=O)[C@H](CCc1ccccc1)NC(=O)CN1CCOCC1)C(=O)N[C@@H](Cc1ccccc1)C(=O)N[C@@H](CC(C)C)C(=O)[C@@]1(C)CO1 [carfilzomib],patients with cardiotoxicity,[4],up to 10%
COc1cccc2c1C(=O)c1c(O)c3c(c(O)c1C2=O)C[C@@](O)(C(=O)CO)C[C@@H]3O[C@H]1C[C@H](N)[C@H](O)[C@H](C)O1 [doxorubicin],plasma CK-MB,[5]; day 21,significant increase
same,plasma triglyceride levels,[5]; day 21 and day 42,significantly elevated
same,heart E/A ratio,[6]; [8],significant cardiotoxic effects
same,left ventricular fractional shortening,[6]; [8],significant cardiotoxic effects
same,cardiac output,[6]; [9],significant cardiotoxic effects
same,left ventricular diastolic function,[6]; [9],significant cardiotoxic effects
same,left ventricular dilatation,[6]; [9],significant cardiotoxic effects
same,cardiac output,[6]; day 21,not significantly so
same,left ventricular diastolic function,[6]; day 21,not significantly so
same,left ventricular dilatation,[6]; day 21,not significantly so
same,congestive heart failure incidence,[7]; lifetime cumulative doxorubicin exposure limited to 400-450 mg/m^2,less than 58
same,incidence of congestive heart failure,[7]; patients received doxorubicin at 400 mg/m^2,4.78
same,incidence of congestive heart failure,[7]; patients received doxorubicin at 550 mg/m^2,26%
same,incidence of congestive heart failure,[7]; patients received doxorubicin at 700 mg/m^2,48%
